# Measurements taken from patent publication US20230358769A1, “CLOT […] FOR QUALITY MONITORING OF PLATELET PRODUCTS” (THE GOVERNMENT OF THE UNITED STATES AS REPRESENTED BY THE …, priority 2022, published 2023).
# Where a SMILES comes first, the peptide text is derived from it. Bridges are numbered along the chain shown (N, C = ends). [ ]: non-standard residue; d: D form. hArg = N=C(N)NCCCC[C@H](N)C(=O)O; Mpa = O=C(O)CCS
# Columns and labels:
# [1] = system: platelets in platelet rich plasma (PRP); test: Microplate clot retraction method (thrombin-activated platelet rich plasma, O.D. 350 nm kinetics); format: cell-based, human; conditions: for clot densification phase (phase 3) of the reaction kinetic curve: at the highest levels of inhibition
# Procedure: Whole blood was collected in acid citrate dextrose tubes (ACD-A; BD Vacutainer, Franklin Lakes NJ) from healthy volunteers in accordance with a U.S. Army Research and Development Command approved protocol (USAISR L-20-003). Whole blood was centrifuged at 200×g for 10 minutes and platelet rich plasma (PRP) was obtained from the upper layer. Platelet poor plasma (PPP) was recovered from the remaining volume of the ACD-A tube after centrifugation at 3,000 times gravity (×g) for 10 minutes. To obtain apheresis platelets, the Trima Accel 7 (Terumo, Lakewood, CO) system was used for collection in either autologous plasma or Isoplate (65% Isoplate, 35% plasma). Platelet concentrations were determined on an Advia® 2120i (Siemens, Malvern, PA) and adjusted to 250,000 platelets/μL with autologous PPP, unless indicated otherwise.
# Individual wells of a 96-well polystyrene microplate were coated with 150 μL of anti-adherence rinse solution (Stem Cell Technologies, Vancouver, Canada) and the microplate was centrifuged for 10 minutes at 1.300×g. The anti-adherence coating solution was aspirated and the coated wells were washed once with phosphate buffered saline. After washing, one side of each coated well was scored with an 18 Gauge (Ga) needle. Five μL of 30 U/ml thrombin (Haematologic Technologies, East Junction, VT) were added to each coated and scored well to initiate platelet aggregation, clot formation, and subsequent clot retraction.
# PRP was supplemented with 6 mM CaCl2 (Sigma, St. Louis, MO) before aliquoting 180 μL to wells that were adjacent to the thrombin-containing (reaction) wells. The transfer of PRP to adjacent (staging) wells allowed for simultaneous transfer of multiple samples to the reaction wells using a multichannel pipette. The microplate was then loaded into a Synergy™ Neo2 microplate reader, and 145 μL of re-calcified PRP were transferred from the staging well to the reaction well. The plate scan was immediately started after addition of PRP. The plate scan protocol consisted of: temperature=37° C., assay duration=30 minutes, read interval=5 seconds, kinetic absorbance wavelength=350 nm, well scan absorbance wavelength=350 nm. After the plate scan protocol was completed, the plate was discarded and the data were exported as text files.
# When indicated, the concentrations of platelets, CaCl2, or thrombin were varied to identify the optimal assay conditions for clot retraction. Additionally, PRP was pre-treated with increasing concentrations of inhibitors to platelet integrin αIIbβ3 (Eptifibatide, Sigma, St. Louis, MO), platelet-fibrin interaction (RGDS, Cayman Chemical, Ann Arbor, MI), and Src-family kinase (PP2, Sigma). Vehicle controls were the solvent used for the respective compound. Each treatment was performed in at least duplicate technical replicates.
# Text files containing the optical density (O.D.) values were imported into R v4.0.5. Parameters of Rate of Clot Formation, Rate of Clot Retraction, Maximum O.D., Retraction Coefficient, Time to Maximum O.D., and Retraction Time were derived for each sample. Algorithms to extract parameters are described in Table 2, below.
# Briefly, for Rates of Clot Formation and Retraction, a sliding window procedure was used to fit a linear model to a subset of 20 consecutive data points (k=20). The slope coefficient was extracted from each linear model and stored in an array. The Rates of Clot Formation and Retraction were defined as the maximum and minimum values, respectively, in the array. […] The data points represent donors and horizontal bars depicts medians. The Maximum and Minimum O.D. values were defined as the maximum and minimum readings, respectively. The Retraction Coefficient was defined as the difference between the Maximum and Minimum O.D. values, divided by the Maximum O.D. value. The Time to Maximum O.D. was defined as the time-point in which the Maximum O.D. value was observed. […]
# [2] = system: platelet rich plasma (PRP); test: Clot retraction assay in 2% Tween coated wells (optimization of assay agonist); format: cell-based, human; conditions: 0.5, 1, 2 and 4 NIH units of thrombin, n=4
# Procedure: Bottom halves of the individual wells in a 96-well plate were coated with 2% Tween and left in a vertical position inside a modified chamber for 90 minutes at room temperature. The coating solutions were then aspirated and allowed to air dry under the hood for 15 minutes. Whole blood collected in ACD tubes from healthy volunteers was subjected to centrifugation at 200×g for 10 minutes to obtain platelet rich plasma (PRP), followed by a second centrifugation at 3000×g for 10 minutes to obtain platelet poor plasma (PPP). When needed, platelet concentrations in the PRP were adjusted to desired levels using PPP. PRP samples (145 μL) were recalcified with 20 mM CaCl2 were then transferred into wells containing five μL of two NIH U/mLs of Thrombin. Further, the changes in absorbance during clot gelation and retraction were tracked at 350 nm using a microplate spectrophotometer for 90 minutes at 37° C.
# To evaluate the appropriate thrombin concentration for the best outcome in the assay, we tested at 0.5, 1, 2 and 4 NIH units of thrombin (n=4). Once coagulation was initiated with thrombin, the clotting kinetics were characterized by a very short lag phase of initiation, a log phase of fibrin polymerization, a fibrin densification phase of platelet mediated fibrin remodeling, and a final rapid CR phase of declining absorbance. […]
compound,measurement,setting,value
CC(C)(C)n1nc(-c2ccc(Cl)cc2)c2c(N)ncnc21 [PP2],clot densification phase (phase 3) of the reaction kinetic curve,[1],absent or greatly diminished
thrombin,effect of thrombin concentration on the method's results,"[1]; thrombin concentration varied, n=5",significantly affected the method's results in a concentration dependent manner
same,CR at 60 minutes after clot initiation,[2],100%
N=C(N)NCCCC[C@@H]1NC(=O)CCSSC[C@@H](C(N)=O)NC(=O)[C@@H]2CCCN2C(=O)[C@H](Cc2c[nH]c3ccccc23)NC(=O)[C@H](CC(=O)O)NC(=O)CNC1=O [Eptifibatide] ([Mpa][hArg]GDWPC-NH2; disulfide 1-7),clot densification phase (phase 3) of the reaction kinetic curve,[1],absent or greatly diminished
C=C1[C@@H](C)[C@H]2[C@H](Cc3ccccc3)NC(=O)[C@]23[C@H](OC(C)=O)/C=C/[C@@](C)(O)C(=O)[C@@H](C)C/C=C/[C@H]3[C@@H]1O [cytochalasin D],"all parameters except Rate of Clot Formation and Maximum O.D., differences among treatment levels","[1]; cytochalasin D pretreatment, n=5, p<0.001",significant differences
same,dose dependence of the differences among conditions,"[1]; cytochalasin D pretreatment, greatest departure from vehicle at highest concentrations",followed the dosing level
"[Ca+2].[Cl-].[Cl-] [CaCl2, Calcium chloride]",clot formation and clot retraction at the highest CaCl2 levels,"[1]; CaCl2 concentration varied, n=5, highest levels","clot formation, but failure in clot retraction"
same,differences in parameters across CaCl2 concentrations,[1]; range of 0 to 6 mM CaCl2,No differences
Arg-Gly-Asp-Ser (RGDS; printed: Arg-Gly-Asp-Ser),clot densification phase (phase 3) of the reaction kinetic curve,[1],absent or greatly diminished
